Reference: patent US20150025077A1 (COYOTE PHARMACEUTICALS, INC., priority 2012, published 2015)
Read-outs that look alike come from different tables or passages of the source.

Legend:
[1] = test system: Mouse neuroblastoma Neuro2A cells; assay: Rescue of amyloid-beta oligomer induced cytotoxicity in Neuro 2a cells (CellTiter-Glo); assay type: cell-based; settings: mouse/rat NG108-15, N2a, A-beta (O) together with compound 48 hr, normalized to A-beta (O) treated only, read-out: % viability vs. untreated
Method: Preparation of amyloid-beta oligomer (A-beta (O)): Synthetic wild type A-beta (1-42) was purchased from American Peptide, and first dissolved with hexafluoroisopropanol (HFIP), then dried in the blowing tissue culture hood overnight to form a film in the eppendorf tube. The A-beta peptide film was first resuspended with DMSO to a concentration of 5 mM, further diluted with DMEM containing N2 supplement (Invitrogen) to achieve a concentration of 100 μM, and then sonicated in room temperature water bath for 10 minutes. The 100 μM peptide solution was then incubated at 4° C. for 24 hr and thoroughly vortexed before applied to cells.
Mouse neuroblastoma Neuro2A cells were plated in 96-well plates and cultured in DMEM supplemented with 10% FBS for 24 hr. […] At the end of incubation, cells were harvested and subjected to viability assay using CellTiter-Glo Luminescent Cell Viability Assay Kit (Promega). […] Compound ID numbers in table refer to structures in Table 1 and Table 2.

[2] = Kp (ratio of AUCbrain to AUCplasma) of GGA in rat; assay type: in vivo; settings: brain, 4 h, 6 h, 8 h, and 10 h time points
[3] = In-vivo PK of GGA oral formulations in rat; settings: plasma; for bioavailability: read-out: oral bioavailability (% F); for half-life: read-out: t½ (converted)
Method: PK Parameters were calculated from noncompartmental analysis (NCA) model using WinNonlin software and the linear/log trapezoidal method.
Parameters that requires 1z: Terminal Half-Life (t1/2)=ln(2)/lz. Calculated using Lambda_z method to find best fit. If necessary, the concentration-time points were manually selected for use in the calculation. Bolded-italicized concentrations indicate points used for calculation.

[4] = Katsuno et al., Proc. Natl. Acad. Sci. USA 2003; cited from earlier work
[5] = GGA in 3% Hydroxypropyl Cellulose (Mn=10,262) aqueous suspension
[6] = GGA in 3% Hydroxypropyl Cellulose (Mn=100,000) aqueous suspension
[7] = GGA in 5% Gum Arabic aqueous suspension
[8] = GGA in 5% Gum Arabic+3% Hydroxypropyl Cellulose (Mn=10,262) aqueous suspension
[9] = GGA in 5% Gum Arabic+3% Hydroxypropyl Cellulose (Mn=100,000) aqueous suspension

SMILES	viability at 1 µM [1] [%]	Kp [2]	Tmax [3, 5] [h]	bioavailability [3, 5] [%]	half-life [3, 5] [h]	Tmax [3, 6] [h]	bioavailability [3, 6] [%]	half-life [3, 6] [h]	Tmax [3, 7] [h]	bioavailability [3, 7] [%]	half-life [3, 7] [h]	Tmax [3, 8] [h]	bioavailability [3, 8] [%]	half-life [3, 8] [h]	Tmax [3, 9] [h]	bioavailability [3, 9] [%]	half-life [3, 9] [h]	concentration of GGA required to exert a cytoprotective effect [4]
CC(C)=CCC/C(C)=C/CC/C(C)=C/CCC(=O)C(C)C [Compound 101]	126																	
CC(=O)CC/C=C(\C)CC/C=C(\C)CC/C=C(\C)CCC=C(C)C [GGA, geranylgeranyl acetone]		0.08 to 0.11	9.33	35	18.7	8.66	41.8	3.13	7.33	37.3	3.43	13.3	36.5	6.73	5.33	58	10.2	more than 600 mg per kg per day
